{
  "source": "patent US20210154122A1",
  "about": "“TOPICAL COMPOSITION” (OTSUKA PHARMACEUTICAL CO., LTD., priority 2017, published 2021)",
  "origin": "cited, not measured here",
  "tested_on": "keratocytes",
  "details": "keratocytes treated with uridine; disclosed in Patent Document 5 (JP 2009-517380 A)",
  "data": [
    {"smiles": "O=c1ccn([C@@H]2O[C@H](CO)[C@@H](O)[C@H]2O)c(=O)[nH]1", "note": "[uridine]", "values": [
      {"measurement": "hyaluronic acid production", "result": "promoted"}
    ]}
  ]
}
